Where two headings read alike, the source gives them in different places.
Target: pSTAT3 (Homo sapiens, UniProt P40763)
Assay: MSD-pSTAT-PBMC Assay (pSTAT3, IL-6 stimulated)
Assay type: cell-based
Description: Cryopreserved Peripheral Blood Mononuclear Cells (PBMC) are from AllCells. Recombinant Human IL-4 and IL-6 are from Peprotech. Mouse monoclonal anti-STAT3 antibody, rabbit monoclonal anti-pY705-STAT3 antibody, rabbit monoclonal Anti-pY641-STAT6 antibody, and lysis buffer are from Cell Signaling Technology (CST). Mouse monoclonal anti-STAT6 antibody is from BioLegend. Assay plates, blocker, and anti-rabbit secondary antibody are from Meso Scale Discovery (MSD).
Cryopreserved PBMCs were thawed out and allowed to recover overnight in IMDM+10% heat-inactivated FBS prior to plating 50,000 (STAT3) or 25,000 (STAT6) cells per well in 96-well U-bottom tissue culture plates. Cells were treated with compound for 3 hrs, then stimulated with 10 ng/mL IL-6 (STAT3) or 1 ng/mL IL-4 (STAT6) for 10 min. Cells were then spun down and washed with ice-cold PBS prior to lysing the cell pellet with 1× lysis buffer (CST) with 1× HALT protease and phosphatase inhibitor cocktail (Thermo). Lysates were transferred to and incubated overnight at 4° C. with shaking in QuickPlex 96-well high bind assay plates (MSD) pre-coated overnight with 30 μL per well of […] mouse monoclonal anti-STAT3 antibody (STAT3) or 2 μg/mL mouse monoclonal anti-STAT6 antibody (STAT6) in 1× PBS, and pre-blocked for 1 hour with 3% Blocker-A (MSD). Captured protein in the assay plates were then washed and probed with 25 μL per well of […] rabbit monoclonal anti-pY705-STAT3 antibody (STAT3) or […] rabbit monoclonal Anti-pY641-STAT6 antibody (STAT6) in 1% Blocker-A for 1 hour at room temperature with shaking, then washed and probed with 25 ul per well of 1 ug/ml Sulfo-TAG Labeled Goat Anti-Rabbit Antibody (MSD) in 1% Blocker-A for 1 hour at room temperature with shaking. Assay plates were then washed and 150 μL of 1× Read Buffer-T (MSD) was added to each well prior to reading on an SQ120 MSD Plate Reader. Assay signal from each sample was subtracted by the signal from unstimulated control wells and normalized to DMSO control wells. IC50 values were calculated using Graph Pad Prism Dose-Response Nonlinear Regression with variable slope. For both pSTAT3 and pSTAT6 A=≤100 nM; B=>100-1000 nM; C=>1000-3000 nM; and D=>3 μM.

[1] = read-out: pSTAT3 IC50, compound 3 hrs, then 10 ng/mL IL-6 10 min, pY705-STAT3
[2] = compound 3 hrs, then 10 ng/mL IL-6 10 min, pY705-STAT3, read-out: pSTAT3 IC50

pSTAT3, sequence (P40763 whole entry): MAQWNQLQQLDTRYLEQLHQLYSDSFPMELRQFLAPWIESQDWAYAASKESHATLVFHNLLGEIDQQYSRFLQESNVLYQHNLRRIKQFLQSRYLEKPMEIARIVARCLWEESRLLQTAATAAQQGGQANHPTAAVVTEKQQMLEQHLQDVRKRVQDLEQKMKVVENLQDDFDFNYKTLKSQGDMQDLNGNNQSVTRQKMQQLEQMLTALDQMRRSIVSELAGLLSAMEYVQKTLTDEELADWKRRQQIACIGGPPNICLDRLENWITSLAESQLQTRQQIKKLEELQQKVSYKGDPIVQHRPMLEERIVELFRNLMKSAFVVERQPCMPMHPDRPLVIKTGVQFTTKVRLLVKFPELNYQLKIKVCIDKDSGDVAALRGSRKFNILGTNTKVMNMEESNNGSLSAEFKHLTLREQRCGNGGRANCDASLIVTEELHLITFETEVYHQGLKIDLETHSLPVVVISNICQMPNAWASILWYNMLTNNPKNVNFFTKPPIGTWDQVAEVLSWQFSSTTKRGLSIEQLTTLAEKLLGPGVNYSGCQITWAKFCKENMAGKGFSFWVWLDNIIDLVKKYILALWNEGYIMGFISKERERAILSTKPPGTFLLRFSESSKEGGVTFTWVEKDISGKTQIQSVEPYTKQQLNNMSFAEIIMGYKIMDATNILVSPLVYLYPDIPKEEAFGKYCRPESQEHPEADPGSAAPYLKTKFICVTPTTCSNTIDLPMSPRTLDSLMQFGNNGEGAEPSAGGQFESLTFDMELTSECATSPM

IC50 [2] [nM]	SMILES	IC50 [1] [nM]
	CCCC(=O)SCCOP(=O)(OCCSC(=O)CCC)C(F)(F)c1ccc2sc(C(=O)N[C@H]3CCC[C@H]4CC[C@@H](C(=O)N5CC(c6cnccc6N6CCN(C(=O)COc7ccc(C8CCC(=O)NC8=O)cc7)CC6)C5)N4C3=O)cc2c1 (stereo partly drawn) [Compound 29, S,S(((((2-(((3S,6S,9aS)-3-(3-(4-(4-(2-(4-(2,6-dioxopiperidin-3-yl)phenoxy)acetyl)piperazin-1-yl)pyridin-3-yl)azetidine-1-carbonyl)-5-oxooctahydro-1H-pyrrolo[1,2-a]azepin-6-yl)carbamoyl)benzo[b]thiophen-5-yl)difluoromethyl)phosphoryl)bis(oxy))bis(ethane-2,1-diyl)) dibutanethioate]	< 100
< 100	CCCC(=O)SCCOP(=O)(OCCSC(=O)CCC)C(F)(F)c1ccc2sc(C(=O)N[C@H]3CCC[C@H]4CC[C@@H](C(=O)N5CC(c6cnccc6N(C)CCOc6ccc(C7CCC(=O)NC7=O)cc6)C5)N4C3=O)cc2c1 (stereo partly drawn) [Compound 20, S,S(((((2-(((3S,6S,9aS)-3-(3-(4-((2-(4-(2,6-dioxopiperidin-3-yl)phenoxy)ethyl)(methyl)amino)pyridin-3-yl)azetidine-1-carbonyl)-5-oxooctahydro-1H-pyrrolo[1,2-a]azepin-6-yl)carbamoyl)benzo[b]thiophen-5-yl)difluoromethyl)phosphoryl)bis(oxy))bis(ethane-2,1-diyl)) dibutanethioate]	
< 100	CCCC(=O)SCCOP(=O)(OCCSC(=O)CCC)C(F)(F)c1ccc2sc(C(=O)N[C@H]3CCC[C@H]4CC[C@@H](C(=O)N5CC(c6cnccc6OCCOCCOc6ccc(C7CCC(=O)NC7=O)cc6)C5)N4C3=O)cc2c1 (stereo partly drawn) [Compound 12, S,S((((2-(((3S,6S,9aS)-3-(3-(4-(2-(2-(4-(2,6-dioxopiperidin-3-yl)phenoxy)ethoxy)ethoxy)pyridin-3-yl)azetidine-1-carbonyl)-5-oxooctahydro-1H-pyrrolo[1,2-a]azepin-6-yl)carbamoyl)benzo[b]thiophen-5-yl)difluoromethyl)phosphoryl)bis(oxy))bis(ethane-2,1-diyl)) dibutanethioate]	
< 100	CCCC(=O)SCCOP(=O)(OCCSC(=O)CCC)C(F)(F)c1ccc2sc(C(=O)N[C@H]3CCC[C@H]4CC[C@@H](C(=O)N5CC(c6cnccc6OCCOc6ccc(C7CCC(=O)NC7=O)cc6)C5)N4C3=O)cc2c1 (stereo partly drawn) [Compound 10, S,S(((((2-(((3S,6S,9aS)-3-(3-(4-(2-(4-(2,6-dioxopiperidin-3-yl)phenoxy)ethoxy)pyridin-3-yl)azetidine-1-carbonyl)-5-oxooctahydro-1H-pyrrolo[1,2-a]azepin-6-yl)carbamoyl)benzo[b]thiophen-5-yl)difluoromethyl)phosphoryl)bis(oxy))bis(ethane-2,1-diyl)) dibutanethioate]	
< 100	Cn1c(=O)n(C2CCC(=O)NC2=O)c2ccc(C#CCCC3CCN(c4ccncc4C4CN(C(=O)[C@@H]5CC[C@@H]6CCC[C@H](NC(=O)c7cc8cc(C(F)(F)P(=O)(OCCSC(=O)C(C)(C)C)OCCSC(=O)C(C)(C)C)ccc8s7)C(=O)N65)C4)CC3)cc21 (stereo partly drawn) [Compound 35, S,S(((((2-(((3S,6S,9aS)-3-(3-(4-(4-(4-(1-(2,6-dioxopiperidin-3-yl)-3-methyl-2-oxo-2,3-dihydro-1H-benzo[d]imidazol-5-yl)but-3-yn-1-yl)piperidin-1-yl)pyridin-3-yl)azetidine-1-carbonyl)-5-oxooctahydro-1H-pyrrolo[1,2-a]azepin-6-yl)carbamoyl)benzo[b]thiophen-5-yl)difluoromethyl)phosphoryl)bis(oxy))bis(ethane-2,1-diyl)) bis(2,2-dimethylpropanethioate)]	
	CCCOC(=O)[C@H](C)NP(=O)(Oc1ccccc1)[C@H](F)c1ccc2sc(C(=O)N[C@H]3CCC[C@H]4CC[C@@H](C(=O)N5CC(c6cnccc6N6CCC(CCC#Cc7ccc8c(c7)n(C)c(=O)n8C7CCC(=O)NC7=O)CC6)C5)N4C3=O)cc2c1 (stereo partly drawn) [Compound 39, propyl (((1S)-(2-(((3S,6S,9aS)-3-(3-(4-(4-(4-(1-(2,6-dioxopiperidin-3-yl)-3-methyl-2-oxo-2,3-dihydro-1H-benzo[d]imidazol-5-yl)but-3-yn-1-yl)piperidin-1-yl)pyridin-3-yl)azetidine-1-carbonyl)-5-oxooctahydro-1H-pyrrolo[1,2-a]azepin-6-yl)carbamoyl)benzo[b]thiophen-5-yl)fluoromethyl)(phenoxy)phosphoryl)-L-alaninate]	< 100
	CCCC(=O)SCCOP(=O)(OCCSC(=O)CCC)C(F)(F)c1ccc2sc(C(=O)N[C@H]3CCC[C@H]4CC[C@@H](C(=O)N5CC(c6cnccc6N6CCC(C(=O)N[C@H](C(=O)N7C[C@H](O)C[C@H]7C(=O)NCc7ccc(-c8scnc8C)cc7)C(C)(C)C)CC6)C5)N4C3=O)cc2c1 [Compound 7, S,S((((difluoro(2-(((3S,6S,9aS)-3-(3-(4-(4-(((S)-1-((2S,4R)-4-hydroxy-2-((4-(4-methylthiazol-5-yl)benzyl)carbamoyl)pyrrolidin-1-yl)-3,3-dimethyl-1-oxobutan-2-yl)carbamoyl)piperidin-1-yl)pyridin-3-yl)azetidine-1-carbonyl)-5-oxooctahydro-1H-pyrrolo[1,2-a]azepin-6-yl)carbamoyl)benzo[b]thiophen-5-yl)methyl)phosphoryl)bis(oxy))bis(ethane-2,1-diyl)) dibutanethioate]	100 to 1000
	CCCOC(=O)[C@H](C)NP(=O)(Oc1ccccc1)[C@@H](F)c1ccc2sc(C(=O)N[C@H]3CCC[C@H]4CC[C@@H](C(=O)N5CC(c6cnccc6N6CCC(CCC#Cc7ccc8c(c7)n(C)c(=O)n8C7CCC(=O)NC7=O)CC6)C5)N4C3=O)cc2c1 (stereo partly drawn) [Compound 38, propyl (((1R)-(2-(((3S,6S,9aS)-3-(3-(4-(4-(4-(1-(2,6-dioxopiperidin-3-yl)-3-methyl-2-oxo-2,3-dihydro-1H-benzo[d]imidazol-5-yl)but-3-yn-1-yl)piperidin-1-yl)pyridin-3-yl)azetidine-1-carbonyl)-5-oxooctahydro-1H-pyrrolo[1,2-a]azepin-6-yl)carbamoyl)benzo[b]thiophen-5-yl)fluoromethyl)(phenoxy)phosphoryl)-L-alaninate]	< 100

SMILES	IC50 [2] [nM]	IC50 [1] [nM]
CCCC(=O)SCCOP(=O)(OCCSC(=O)CCC)C(F)(F)c1ccc2sc(C(=O)N[C@H]3CCC[C@H]4CC[C@@H](C(=O)N5CC(c6cnccc6OCCCCN[C@H](C(=O)N6C[C@H](O)C[C@H]6C(=O)NCc6ccc(-c7scnc7C)cc6)C(C)(C)C)C5)N4C3=O)cc2c1 [Compound 1, S,S((((difluoro(2-(((3S,6S,9aS)-3-(3-(4-(4-(((S)-1-((2S,4R)-4-hydroxy-2-((4-(4-methylthiazol-5-yl)benzyl)carbamoyl)pyrrolidin-1-yl)-3,3-dimethyl-1-oxobutan-2-yl)amino)butoxy)pyridin-3-yl)azetidine-1-carbonyl)-5-oxooctahydro-1H-pyrrolo[1,2-a]azepin-6-yl)carbamoyl)benzo[b]thiophen-5-yl)methyl)phosphoryl)bis(oxy))bis(ethane-2,1-diyl)) dibutanethioate]	100 to 1000	
